target: T1, human secreted PLA2 (Homo sapiens, UniProt P14555); assay: chromogenic assay of recombinant human secreted phospholipase A2 inhibition (Assay Example 1); format: biochemical; conditions: mean of 3-5 tests; 40° C., 30 minutes, pH 7.5, 405 nanometers; read-out: Inhibition of human secreted PLA2 IC50 ± mean deviation (3-5 tests)
T1 sequence (P14555 21-144): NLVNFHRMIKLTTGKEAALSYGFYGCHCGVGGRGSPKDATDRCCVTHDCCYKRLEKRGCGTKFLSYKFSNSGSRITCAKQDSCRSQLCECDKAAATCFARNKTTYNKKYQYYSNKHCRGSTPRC
Text: The assay described herein has been adapted for high volume screening using 96 well microtiter plates. A general description of this assay method is found in the article, "Analysis of Human Synovial Fluid Phospholipase A2 on Short Chain Phosphatidylcholine-Mixed Micelles: Development of a Spectrophotometric Assay Suitable for a Microtiterplate Reader", by Laure J. Reynolds, Lori L. […] Reagents, the disclosure of which is incorporated herein by reference. REACTION BUFFER CaCl2.2H20 (1.47 g/L) KCl (7.455 g/L) Bovine Serum Albumin (fatty acid free) (1 g/L) (Sigma A-7030, product of Sigma Chemical Co. St. Louis Mo., USA) TRIS HCl (3.94 g/L) pH 7.5 (adjust with NaOH) ENZYME BUFFER […] 0.2 NaCl Adjust pH to 4.5 with acetic acid DTNB […] RACEMIC DIHEPTANOYL THIO - PC […] TRITON X-100™ prepare at 6.249 mg/ml in reaction buffer to equal […]. REACTION MIXTURE A measured volume of racemic dipheptanoyl thio PC supplied in chloroform at a concentration of 100 mg/ml is taken to dryness and redissolved in 10 millimolar TRITON X-100™ nonionic detergent aqueous solution. Reaction Buffer is added to the solution, then DTNB to give the Reaction Mixture. The reaction mixture thus obtained contains 1 mM diheptanoly thio-PC substrate, 0.29 mM Triton X-100™ detergent, and 0.12 mM DTMB in a buffered aqueous solution at pH 7.5. Assay Procedure: 1. Add 0.2 ml reaction mixture to all wells; 2. Add 10 ul test compound (or solvent blank) to appropriate wells, mix 20 seconds; 3. Add 50 nanograms of sPLA2 (10 microliters) to appropriate wells; 4. Incubate plate at 40° C. for 30 minutes; […] Read absorbance of wells at 405 nanometers with an automatic plate reader. All compounds were tested in triplicate. Typically, compounds were tested at a final concentration of 5 ug/ml. […] Lack of color development at 405 nanometers evidenced inhibition. Compounds initially found to be active were reassayed to confirm their activity and, if sufficiently active, IC50 values were determined. […] In all cases, % inhibition measured at 405 nanometers generated by enzyme reactions containing inhibitors relative to the uninhibited control reactions was determined. Each sample was titrated in triplicate and result values were averaged for plotting and calculation of IC50 values. […] IC50 values were determined at least three times for each compound tested.

Compound	IC50 [nM]
COc1ccc2c(c1)c(CC(=O)NN)c(C)n2Cc1ccccc1OC [Example 26, 5-Methoxy-1-[(2-methoxyphenyl)methyl]-2-methyl-1H-indole-3-acetic acid hydrazide]	3260 ± 1740
Cc1c(CC(=O)NN)c2c(Br)cccc2n1Cc1ccccc1 [Example 53, 4-Bromo-2-methyl-1-(phenylmethyl)-1H-indole-3-acetic acid hydrazide]	2060 ± 940
Cc1ccc2c(c1)c(CC(=O)NN)c(C)n2Cc1ccccc1 [Example 59, 2,5-Dimethyl-1-(phenylmethyl)-1H-indole-3-acetic acid hydrazide]	760 ± 350
COc1ccc2c(c1)c(CC(=O)NN)c(C)n2Cc1ccc(OCc2ccccc2)cc1 [Example 32, 1-[(4-Benzyloxyphenyl)methyl]-5-methoxy-2-methyl-1H-indole-3-acetic acid hydrazide]	2280 ± 570
5-Methoxy-2-methyl-1-(phenylmethyl)-1H-indole-3-butanoic acid hydrazide [Example 67]	24200 ± 10700
5-Methoxy-2-methyl-1-(phenylmethyl)-1H-indole-3-propanoic acid hydrazide [Example 65]	32600
COc1ccc2c(c1)c(CC(=O)NN)c(SC)n2Cc1ccccc1 [Example 45, 5-Methoxy-2-methylthio-1-(phenylmethyl)-1H-indole-3-acetic acid hydrazide]	600 ± 130
COc1ccc2c(c1)c(CC(=O)NN)c(C)n2Cc1cccnc1 [Example 38, 5-Methoxy-2-methyl-1-[(3-pyridyl)methyl]-1H-indole-3-acetic acid hydrazide]	84200 ± 19400
COc1ccc2c(c1)c(CC(=O)NN)c(C)n2Cc1ccncc1 [Example 39, 5-Methoxy-2-methyl-1-[(4-pyridyl)methyl]-1H-indole-3-acetic acid hydrazide]	45900 ± 13100
Cc1c(CC(=O)NN)c2cc(-c3ccccc3)ccc2n1Cc1cccc(OCc2ccccc2)c1 [Example 58, 1-[(3-Benzyloxyphenyl)methyl]-2-methyl-5-phenyl-1H-indole-3-acetic acid hydrazide]	2210 ± 1160
COc1ccc2c(c1)c(CC(=O)NN)c(C)n2Cc1c(Cl)cccc1Cl [Example 21, 1-(2,6-Dichlorophenylmethyl)-5-methoxy-2-methyl-1H-indole-3-acetic acid hydrazide]	640 ± 190
NNC(=O)Cc1cn(Cc2ccccc2)c2ccc(OCc3ccccc3)cc12 [Example 9, 5-Benzyloxy-1-(phenylmethyl)-1H-indole-3-acetic acid hydrazide]	2310 ± 650
Cc1c(CC(=O)NN)c2cc(C(=O)NN)ccc2n1Cc1cccc(Cl)c1 [Example 69, 1-[(3-Chlorophenyl)methyl]-5-hydrazinocarbonyl-2-methyl-1H -indole-3-acetic acid hydrazide]	2700 ± 380
Cc1c(CC(=O)NN)c2cc(-c3ccccc3)ccc2n1Cc1ccccc1 [Example 56, 2-Methyl-5-phenyl-1-(phenylmethyl)-1H-indole-3-acetic acid hydrazide]	860 ± 200
Cc1c(CC(=O)NN)c2cc(F)ccc2n1Cc1ccccc1 [Example 47, 5-Fluoro-2-methyl-1-(phenylmethyl)-1H-indole-3-acetic acid hydrazide]	1490 ± 340
CCOc1ccc2c(c1)c(CC(=O)NN)c(C)n2Cc1ccccc1 [Example 1, 5-Ethoxy-2-methyl-1-(phenylmethyl)-1H-indole-3-acetic acid hydrazide]	800 ± 250
Cc1c(CC(=O)NN)c2cc(C(C)(C)C)ccc2n1Cc1ccccc1 [Example 60, 5-tert-Butyl-2-methyl-1-(phenylmethyl)-1H-indole-3-acetic acid hydrazide]	1020 ± 350

Compound	IC50 [nM]
Cc1c(CC(=O)NN)c2c(-c3ccccc3)cccc2n1Cc1ccccc1 [Example 55, 2-Methyl-4-phenyl-1-(phenylmethyl)-1H-indole-3-acetic acid hydrazide]	2060 ± 940
COc1ccc2c(c1)c(CC(=O)NN)c(C)n2Cc1ccc(Cl)cc1 [Example 19, 1-(4-Chlorophenylmethyl)-5-methoxy-2-methyl-1H-indole-3-acetic acid hydrazide]	9280 ± 2060
5-Methoxy-1-(phenylmethyl)-1H-indole-3-propanoic acid hydrazide [Example 64]	5900 ± 2990
CCCCCCCCCCOc1cccc(Cn2c(C)c(CC(=O)NN)c3cc(OC)ccc32)c1 [Example 29, 1-[(3-Decyloxyphenyl)methyl]-5-methoxy-2-methyl-1H-indole-3-acetic acid hydrazide]	840 ± 310
Cc1c(CC(=O)NN)c2ccccc2n1Cc1ccccc1 [Example 10, 2-Methyl-1-(phenylmethyl)-1H-indole-3-acetic acid hydrazide]	2360 ± 500
COc1ccc2ccccc2c1Cn1c(C)c(CC(=O)NN)c2ccccc21 [Example 11, 1-(2-Methoxy-1-naphthalenylmethyl)-2-methyl-1H-indole-3-acetic acid hydrazide]	11100 ± 1800
COc1ccc2c(c1)c(CC(=O)NN)c(C)n2CCCc1ccccc1 [Example 41, 5-Methoxy-2-methyl-1-(3-phenylpropyl)-1H-indole-3-acetic acid hydrazide]	16800 ± 2890
COc1ccc2c(c1)c(CC(=O)NN)c(C)n2Cc1cccc(C(F)(F)F)c1 [Example 23, 5-Methoxy-2-methyl-1-[(3-trifluoromethylphenyl)methyl]-1H-indole-3-acetic acid hydrazide]	890 ± 520
COc1ccc2c(c1)c(CC(=O)NN)c(C)n2Cc1ccc(O)cc1 [Example 33, 1-[(4-Hydroxyphenyl)methyl]-5-methoxy-2-methyl-1H-indole-3-acetic acid hydrazide]	5960 ± 2030
Cc1c(CC(=O)NN)c2cc(Cl)ccc2n1Cc1ccccc1 [Example 48, 5-Chloro-2-methyl-1-(phenylmethyl)-1H-indole-3-acetic acid hydrazide]	740 ± 150
Cc1c(CC(=O)NN)c2cc(Br)ccc2n1Cc1ccccc1 [Example 50, 5-Bromo-2-methyl-1-(phenylmethyl)-1H-indole-3-acetic acid hydrazide]	1020 ± 430
CCc1c(CC(=O)NN)c2cc(F)ccc2n1Cc1ccccc1 [Example 7, 2-Ethyl-5-fluoro-1-(phenylmethyl)-1H-indole-3-acetic acid hydrazide]	1520 ± 560
CCc1c(CC(=O)NN)c2cc(C)ccc2n1Cc1ccccc1 [Example 6, 2-Ethyl-5-methyl-1-(phenylmethyl)-1H-indole-3-acetic acid hydrazide]	670 ± 240
COc1ccc2c(c1)c(CC(=O)NN)c(C)n2CC(C)C [Example 13, 5-Methoxy-2-methyl-1-(2-methyl-1-propyl)-1H-indole-3-acetic acid hydrazide]	9880 ± 3410
Cc1c(CC(=O)NN)c2cc(OCc3ccc4ccccc4n3)ccc2n1Cc1ccc(Cl)cc1 [Example 63, 1-[(4-Chlorophenyl)methyl]-2-methyl-5-[(2-quinolyl)methoxy]-1H-indole-3-acetic acid hydrazide]	8460 ± 5450
COc1ccc2c(c1)c(CC(=O)NN)c(C)n2Cc1ccc2ccccc2n1 [Example 40, 5-Methoxy-2-methyl-1-[(2-quinolyl)methyl]-1H-indole-3-acetic acid hydrazide]	8150 ± 3270
Cc1c(CC(=O)NN)c2cc(Br)ccc2n1Cc1cccc(-c2ccccc2)c1 [Example 51, 1-([1,1'-biphenyl]-3-ylmethyl)-5-bromo-2-methyl-1H-indole-3-acetic acid hydrazide]	1340 ± 440

Reference: US5578634A, “1H-indole-3-acetic acid hydrazide sPLA2 inhibitors” (Eli Lilly and Company, priority 1995, dated 1996)
